Data reported in EP0615449B1, “USE OF FLAVINE DERIVATIVES IN THE PRODUCTION OF MEDICO-SURGICAL SANITARY ARTICLES AND SANITARY ARTICLES SO OBTAINED” (BERQUE, Jean, priority 1992, dated 1994).

How the values were obtained:
[1] = vulcanisation à chaud du latex; cited from earlier work
[2] = Cytotoxicity observed in the in vitro tests of FAD; format: cell-based
[3] = system: HIV; test: In vitro antiviral tests of FAD compared with AZT and DDI; format: cell-based
[4] = system: VIH; conditions: cited from earlier work
[5] = system: rougeole; conditions: traitement par la vitamine A, AFRIQUE DU SUD; cited from earlier work
[6] = system: HIV; test: Clinical observation, intravenous vitamin B2 in an AIDS patient (stage IV); format: in vivo; conditions: malade sidéen stade IV; voie intra-veineuse, injection unique de 20 mg par jour
Excerpt: (§1) L'idée de départ découlait donc de constatations expérimentales concernant la photosynthèse protéique à l'échelle animale et la photosynthèse virale. On a donc utilisé initialement la vitamine B2 en fonction de ses propriétés d'absorption de la lumière avec l'idée d'interposer un écran photoprotecteur entre le rayonnement solaire UV parvenant à l'organisme et les virus HIV et HSV dont les patients étaient porteurs. Ce concept a été formulé dans le but d'"éteindre" ces virus dont il semblait, en fonction des hypothèses émises, que le rayonnement ultra-violet activait tant leur synthèse que leur replication. Les effets cliniques spectaculaires et très rapidement obtenus ont confirmé l'hypothèse de départ. C'est par la suite que le Demandeur s'est rendu compte qu'outre les propriétés photoprotectrices de la vitamine B2, la formule biochimique diphosphonucléotidique de son métabolite actif, le FAD, jouait également un rôle important.

[7] = system: Herpès génital; test: Clinical observation, intravenous vitamin B2 in a patient with recurrent genital herpes; format: in vivo; conditions: récurrence importante d'un Herpès génital; voie intra-veineuse, injection unique de 20 mg par jour
Excerpt: as §1

[8] = system: cellules CEM-SS infectées par HIV1; test: In vitro anti-viral test on HIV1-infected CEM-SS cells (Institut de Virologie, Strasbourg), read out as reverse transcriptase inhibition; format: cell-based; conditions: dilution au 1/5000è
Excerpt: Début 1992, un test "in vitro" a été effectué par l'Institut de Virologie de la Faculté de Strasbourg. Le test est positif à la dilution au 1/5000è sur les cellules CEM-SS infectées par HIV1; l'effet anti-viral est objectivé par une inhibition de la transcriptase reverse supérieure à 50%.

[9] = lait exposé à la lumière, même dans un emballage transparent; cited from earlier work

Cc1cc2nc3c(=O)[nH]c(=O)nc-3n(C[C@H](O)[C@H](O)[C@H](O)COP(=O)(O)OP(=O)(O)OC[C@H]3O[C@@H](n4cnc5c(N)ncnc54)[C@H](O)[C@@H]3O)c2cc1C [FAD, flavine -adenine dinucleotide]
stabilité thermique [1]: thermostables
cyto-toxicité [2]: sans aucune cyto-toxicité
activité in vitro [3]: aussi actif in vitro que l'AZT et plus actif que le DDI

C=CC1=C(C)c2cc3[n-]c(cc4[n-]c(cc5nc(cc1n2)C(C)=C5C=C)c(C)c4CCC(=O)O)c(CCC(=O)O)c3C.[Fe+2] [Hème]
activité anti-VIH in vitro [4]: exerce une activité anti-VIH in vitro

N[C@@H](CCC(=O)N[C@@H](CS)C(=O)NCC(=O)O)C(=O)O [glutathion]
activité anti-VIH in vitro [4]: exerce une activité anti-VIH in vitro

CC1=C(/C=C/C(C)=C/C=C/C(C)=C/CO)C(C)(C)CCC1 [vitamine A]
amélioration de la rougeole [5]: amélioration notable

Cc1cc2nc3c(=O)[nH]c(=O)nc-3n(C[C@H](O)[C@H](O)[C@H](O)CO)c2cc1C [vitamine B2, Riboflavine]
effets cliniques [6]: résultats spectaculaires
effets cliniques [7]: résultats spectaculaires
inhibition de la transcriptase reverse [8]: > 50%
test "in vitro" (effet anti-viral) [8]: positif
Riboflavine détruite [9]: 85%

acides biliaires
activité anti-VIH in vitro [4]: actifs in vitro sur le VIH
